Test results: BindingDB's records for doi:10.1016/j.bioorg.2012.01.003 (Institute For Advanced Studies In Basic Sciences (Iasbs), 2012)

Target: Acetylcholinesterase (Electrophorus electricus, UniProt O42275)
Test: Inhibition Assay
Conditions: pH 8; 25 °C
Description: Inhibitory activity of synthesized alpha-unreidophosphonates were determined at 25 C by the colorimetric method of Ellman et al.

Sequence of Acetylcholinesterase (O42275 whole entry): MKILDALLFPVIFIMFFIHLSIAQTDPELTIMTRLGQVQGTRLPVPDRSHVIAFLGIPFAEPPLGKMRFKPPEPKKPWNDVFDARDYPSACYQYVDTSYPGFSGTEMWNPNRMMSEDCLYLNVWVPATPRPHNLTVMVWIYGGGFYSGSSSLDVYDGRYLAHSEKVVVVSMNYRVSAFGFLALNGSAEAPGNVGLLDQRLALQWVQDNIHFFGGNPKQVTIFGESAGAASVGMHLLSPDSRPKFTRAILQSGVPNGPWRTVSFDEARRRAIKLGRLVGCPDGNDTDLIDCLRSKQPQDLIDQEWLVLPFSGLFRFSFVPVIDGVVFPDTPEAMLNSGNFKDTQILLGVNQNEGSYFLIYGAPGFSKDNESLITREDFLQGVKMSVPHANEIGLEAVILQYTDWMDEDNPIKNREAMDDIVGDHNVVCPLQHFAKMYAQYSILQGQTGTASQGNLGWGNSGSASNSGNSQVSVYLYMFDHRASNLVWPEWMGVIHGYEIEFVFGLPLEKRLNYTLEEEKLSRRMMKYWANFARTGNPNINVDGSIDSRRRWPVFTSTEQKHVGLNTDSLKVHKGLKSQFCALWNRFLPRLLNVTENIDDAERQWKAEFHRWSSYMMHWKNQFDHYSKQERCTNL

SMILES | IC50 [µM]
CCOP(=O)(OCC)C(c1ccc(C)cc1)N(C(=O)Nc1ccccc1)c1ccccc1 (stereo not drawn) [Alpha-ureidophosphonate, e] | 441
CCOP(=O)(OCC)C(c1ccc(C)cc1)N(C(=O)Nc1ccccc1)C1CCCCC1 (stereo not drawn) [Alpha-ureidophosphonate, k] | 148
CCOP(=O)(OCC)C(c1ccccc1)N(C(=O)Nc1ccccc1)c1ccccc1 (stereo not drawn) [Alpha-ureidophosphonate, a] | 172
CCOP(=O)(OCC)C(c1ccc([N+](=O)[O-])cc1)N(C(=O)Nc1ccccc1)c1ccccc1 (stereo not drawn) [Alpha-ureidophosphonate, d] | 811
CCOP(=O)(OCC)C(c1ccc(F)cc1)N(C(=O)Nc1ccccc1)c1ccc(OC)cc1 (stereo not drawn) [Alpha-ureidophosphonate, g] | 69.3
CCOP(=O)(OCC)C(c1ccc(C(C)C)cc1)N(C(=O)Nc1ccccc1)c1ccccc1 (stereo not drawn) [Alpha-ureidophosphonate, b] | 230
CCOP(=O)(OCC)C(c1ccc(C)cc1)N(Cc1ccccc1)C(=O)Nc1ccccc1 (stereo not drawn) [Alpha-ureidophosphonate, i] | 2.23
